Test results: patent US20250186541A1, “DLL3 TARGETING PEPTIDES AND CONSTRUCTS THEREOF” (MARIANA ONCOLOGY INC., priority 2023, published 2025)
Numbered stars: 1 amine (or outer) side, 2 acyl side, 3 side chain; on linkers, the order of the positions; unused ones are H or OH. Bridge positions count the residues as written; N and C are the ends. Square brackets hold non-standard residues; d marks the D form. Peptide text beside a SMILES is read from it. * marks the point of attachment. Ala(piperidin-4-yl) = O=C([C@H](CC1CCN([*:3])CC1)N[*:1])[*:2]; DOTA = O=C(O)CN1CCN(CC(=O)O)CCN(CC(=O)*)CCN(CC(=O)O)CC1; Trp(7-Me) = Cc1cccc2c(C[C@H](N)C(=O)O)c[nH]c12; Phe(4-CH2NH2) = NCc1ccc(C[C@H](N)C(=O)O)cc1; 1Nal = N[C@@H](Cc1cccc2ccccc12)C(=O)O; 2Nal = N[C@@H](Cc1ccc2ccccc2c1)C(=O)O; NMetBuAla = CN[C@@H](CC(C)(C)C)C(=O)O; NMeChg = CN[C@H](C(=O)O)C1CCCCC1; tBuAla = CC(C)(C)C[C@H](N)C(=O)O; NMeD = CN[C@@H](CC(=O)O)C(=O)O; Chg = N[C@H](C(=O)O)C1CCCCC1; αMeP = C[C@@]1(C(=O)O)CCCN1; NMeS = CN[C@@H](CO)C(=O)O; Ahx = NCCCCCC(=O)O

Molecular target: T1, human DLL3 (Homo sapiens, UniProt Q9NYJ7)
T1 construct: biotin (biotinylated)
T1 sequence (Q9NYJ7 27-618): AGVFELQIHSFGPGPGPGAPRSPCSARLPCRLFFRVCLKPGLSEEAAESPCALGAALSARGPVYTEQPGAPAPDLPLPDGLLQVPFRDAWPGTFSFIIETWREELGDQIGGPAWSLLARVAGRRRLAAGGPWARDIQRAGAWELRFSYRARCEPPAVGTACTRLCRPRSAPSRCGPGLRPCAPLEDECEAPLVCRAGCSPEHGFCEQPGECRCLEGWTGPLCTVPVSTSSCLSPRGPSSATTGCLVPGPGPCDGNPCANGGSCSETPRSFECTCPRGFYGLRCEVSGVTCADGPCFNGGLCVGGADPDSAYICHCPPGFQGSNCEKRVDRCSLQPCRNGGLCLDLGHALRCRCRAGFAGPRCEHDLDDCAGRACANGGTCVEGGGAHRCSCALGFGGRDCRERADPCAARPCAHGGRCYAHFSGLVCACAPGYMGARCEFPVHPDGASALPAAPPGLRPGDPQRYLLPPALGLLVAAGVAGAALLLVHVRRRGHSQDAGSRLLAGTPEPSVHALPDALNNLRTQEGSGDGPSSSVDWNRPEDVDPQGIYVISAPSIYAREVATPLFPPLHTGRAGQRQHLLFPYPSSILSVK
Experiment: Affinity determination by Surface Plasmon Resonance (SPR), Biacore, 1:1 binding model
Conditions: biotinylated human DLL3 on streptavidin chip, 25° C.; NB = nonbinding
In short: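 SPR with biotinylated human DLL3 captured on a streptavidin chip, with a reference surface subtracted. Samples were injected at several concentrations at 100 μL/min in phosphate buffer with 137 mM NaCl, 2.7 mM KCl, 0.05% P20 and 2% DMSO. Kinetic and affinity constants came from a 1:1 binding fit.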

Row | SMILES | Kd
1 | CC(=O)N[C@H](C)C(=O)N[C@@H](CO)C(=O)N[C@@H](CC(=O)O)C(=O)N[C@H]1CSSC[C@@H](C(=O)N2CCC[C@@]2(C)C(=O)N[C@@H](Cc2ccccc2)C(=O)N[C@@H](CC(=O)O)C(=O)N[C@H](CCCCNC(=O)CN2CCN(CC(=O)O)CCN(CC(=O)O)CCN(CC(=O)O)CC2)C(N)=O)NC(=O)[C@H](CC(N)=O)NC(=O)[C@H](Cc2ccc3ccccc3c2)NC(=O)[C@H](CCC(N)=O)NC(=O)[C@H](CC(C)(C)C)N(C)C(=O)[C@H](Cc2cccc3ccccc23)NC1=O [compound 171, Ac-(D-Ala)-S-D-C(3)-(1Nal)-(NMe-Tba)-Q-(2Nal)-N-C(3)-(aMe-P)-F -D-[D-Lys(DOTA)]-NH2] (Ac-[dA]SDC[1Nal][NMetBuAla]Q[2Nal]NC[αMeP]FD[dK](DOTA)-NH2; disulfide 4-10) | 1210 pM
2 | CC(=O)N[C@@H](CO)C(=O)N[C@@H](CC(=O)O)C(=O)N[C@H]1CSSC[C@@H](C(=O)N2CCC[C@@]2(C)C(=O)N[C@@H](Cc2ccccc2)C(=O)N[C@@H](CC(=O)O)C(=O)N[C@H](CCCCNC(=O)CN2CCN(CC(=O)O)CCN(CC(=O)O)CCN(CC(=O)O)CC2)C(N)=O)NC(=O)[C@H](CC(N)=O)NC(=O)[C@H](Cc2ccc3ccccc3c2)NC(=O)[C@H](CC2CCNCC2)NC(=O)[C@H](CC(C)(C)C)N(C)C(=O)[C@H](Cc2cccc3ccccc23)NC1=O [compound 178, Ac-S-D-C(3)-(1Nal)-(NMe-Tba)-[3-(4-piperidinyl)-Ala]-(2Nal)-N-C(3)-(aMe-P)-F -D-[D-Lys(DOTA)]-NH2] (Ac-SDC[1Nal][NMetBuAla][Ala(piperidin-4-yl)][2Nal]NC[αMeP]FD[dK](DOTA)-NH2; disulfide 3-9) | 2430 pM
3 | CC(=O)N[C@@H](CO)C(=O)N[C@@H](CC(=O)O)C(=O)N[C@H]1CSSC[C@@H](C(=O)N2CCC[C@@]2(C)C(=O)N[C@@H](Cc2ccccc2)C(=O)N[C@@H](CC(=O)O)C(=O)N[C@H](CCCCNC(=O)CN2CCN(CC(=O)O)CCN(CC(=O)O)CCN(CC(=O)O)CC2)C(N)=O)NC(=O)[C@H](CC(N)=O)NC(=O)[C@H](Cc2ccc3ccccc3c2)NC(=O)[C@H](CC2CCNCC2)NC(=O)[C@H](C2CCCCC2)N(C)C(=O)[C@H](Cc2cccc3ccccc23)NC1=O [compound 179, Ac-S-D-C(3)-(1Nal)-(NMe-Chg)-[3-(4-piperidinyl)-Ala]-(2Nal)-N-C(3)-(aMe-P)-F -D-[D-Lys(DOTA)]-NH2] (Ac-SDC[1Nal][NMeChg][Ala(piperidin-4-yl)][2Nal]NC[αMeP]FD[dK](DOTA)-NH2; disulfide 3-9) | > 30000 pM
4 | CC(=O)N[C@@H](CC1CCNCC1)C(=O)N[C@@H](CO)C(=O)N[C@@H](CC(=O)O)C(=O)N[C@H]1CSSC[C@@H](C(=O)N2CCC[C@@]2(C)C(=O)N[C@@H](Cc2ccccc2)C(=O)N[C@@H](CC(=O)O)C(N)=O)NC(=O)[C@H](CC(N)=O)NC(=O)[C@H](Cc2ccc3ccccc3c2)NC(=O)[C@H](Cc2ccc(CNC(=O)CN3CCN(CC(=O)O)CCN(CC(=O)O)CCN(CC(=O)O)CC3)cc2)NC(=O)[C@H](CC(C)(C)C)N(C)C(=O)[C@H](Cc2cccc3ccccc23)NC1=O [compound 180, Ac-[3-(4-piperidinyl)-Ala]-S-D-C(3)-(1Nal)-(NMe-Tba)-[PAF(DOTA)]-(2Nal)-N-C(3)-(aMe-P)-F -D-CONH2] (Ac-[Ala(piperidin-4-yl)]SDC[1Nal][NMetBuAla][Phe(4-CH2NH2)](DOTA)[2Nal]NC[αMeP]FD-NH2; disulfide 4-10) | > 30000 pM

The next compounds have a lower Kd than those just listed; values first:

Row | Kd | SMILES
5 | 480 pM | CC(=O)N[C@H](C)C(=O)N[C@@H](CO)C(=O)N[C@@H](CC(=O)O)C(=O)N[C@H]1CSSC[C@@H](C(=O)N2CCC[C@@]2(C)C(=O)N[C@@H](Cc2ccccc2)C(=O)N[C@@H](CC(=O)O)C(=O)N[C@H](CCCCNC(=O)CN2CCN(CC(=O)O)CCN(CC(=O)O)CCN(CC(=O)O)CC2)C(N)=O)NC(=O)[C@H](CC(N)=O)NC(=O)[C@H](Cc2ccc3ccccc3c2)NC(=O)[C@H](CCC(N)=O)NC(=O)[C@H](CC(C)(C)C)NC(=O)[C@H](Cc2c[nH]c3c(C)cccc23)NC1=O [compound 173, Ac-(D-Ala)-S-D-C(3)-(7Me-W)-(t-Bu-Ala)-Q-(2Nal)-N-C(3)-(aMe-P)-F -D-[D-Lys(DOTA)]-NH2] (Ac-[dA]SDC[Trp(7-Me)][tBuAla]Q[2Nal]NC[αMeP]FD[dK](DOTA)-NH2; disulfide 4-10)
6 | 380 pM | CC(=O)N[C@H](C)C(=O)N[C@@H](CO)C(=O)N(C)[C@@H](CC(=O)O)C(=O)N[C@H]1CSSC[C@@H](C(=O)N2CCC[C@@]2(C)C(=O)N[C@@H](Cc2ccccc2)C(=O)N[C@@H](CC(=O)O)C(=O)N[C@H](CCCCNC(=O)CN2CCN(CC(=O)O)CCN(CC(=O)O)CCN(CC(=O)O)CC2)C(N)=O)NC(=O)[C@H](CC(N)=O)NC(=O)[C@H](Cc2ccc3ccccc3c2)NC(=O)[C@H](CCC(N)=O)NC(=O)[C@H](CC(C)(C)C)NC(=O)[C@H](Cc2cccc3ccccc23)NC1=O [compound 170, Ac-(D-Ala)-S-(NMe-Asp)-C(3)-(1Nal)-(t-Bu-Ala)-Q-(2Nal)-N-C(3)-(aMe-P)-F-D-[D-Lys(DOTA)]-NH2] (Ac-[dA]S[NMeD]C[1Nal][tBuAla]Q[2Nal]NC[αMeP]FD[dK](DOTA)-NH2; disulfide 4-10)
7 | 230 pM | CC(=O)N[C@H](C(=O)N[C@@H](CO)C(=O)N[C@@H](CC(=O)O)C(=O)N[C@H]1CSSC[C@@H](C(=O)N2CCC[C@@]2(C)C(=O)N[C@@H](Cc2ccccc2)C(=O)N[C@@H](CC(=O)O)C(N)=O)NC(=O)[C@H](CC(N)=O)NC(=O)[C@H](Cc2ccc3ccccc3c2)NC(=O)[C@H](CCCCNC(=O)CN2CCN(CC(=O)O)CCN(CC(=O)O)CCN(CC(=O)O)CC2)NC(=O)[C@H](CC(C)(C)C)NC(=O)[C@H](Cc2cccc3ccccc23)NC1=O)C1CCCCC1 [compound 174, Ac-(Chg)-S-D-C(3)-(1Nal)-(t-Bu-Ala)-[L-Lys(DOTA)]-(2Nal)-N-C(3)-(aMe-P)-F -D-CONH2] (Ac-[Chg]SDC[1Nal][tBuAla]K(DOTA)[2Nal]NC[αMeP]FD-NH2; disulfide 4-10)
8 | 98 pM | C[C@@H](NC(=O)CCCCCNC(=O)CN1CCN(CC(=O)O)CCN(CC(=O)O)CCN(CC(=O)O)CC1)C(=O)N[C@@H](CO)C(=O)N[C@@H](CC(=O)O)C(=O)N[C@H]1CSSC[C@@H](C(=O)N2CCC[C@@]2(C)C(=O)N[C@@H](Cc2ccccc2)C(=O)N[C@@H](CC(=O)O)C(N)=O)NC(=O)[C@H](CC(N)=O)NC(=O)[C@H](Cc2ccc3ccccc3c2)NC(=O)[C@H](CC2CCNCC2)NC(=O)[C@H](CC(C)(C)C)NC(=O)[C@H](Cc2cccc3ccccc23)NC1=O [compound 177, DOTA-PEG4-S-D-C(3)-(1Nal)-(t-Bu-Ala)-[3-(4-piperidinyl)-Ala]-(2Nal)-N-C(3)-(aMe-P)-F -D-CONH2] ({DOTA-Ahx}-[dA]SDC[1Nal][tBuAla][Ala(piperidin-4-yl)][2Nal]NC[αMeP]FD-NH2; disulfide 4-10)
9 | 67 pM | C[C@@H](NC(=O)CN1CCN(CC(=O)O)CCN(CC(=O)O)CCN(CC(=O)O)CC1)C(=O)N[C@@H](CO)C(=O)N[C@@H](CC(=O)O)C(=O)N[C@H]1CSSC[C@@H](C(=O)N2CCC[C@@]2(C)C(=O)N[C@@H](Cc2ccccc2)C(=O)N[C@@H](CC(=O)O)C(N)=O)NC(=O)[C@H](CC(N)=O)NC(=O)[C@H](Cc2ccc3ccccc3c2)NC(=O)[C@H](CC2CCNCC2)NC(=O)[C@H](CC(C)(C)C)NC(=O)[C@H](Cc2cccc3ccccc23)NC1=O [compound 175, DOTA-(D-Ala)-S-D-C(3)-(1Nal)-(t-Bu-Ala)-[3-(4-piperidinyl)-Ala]-(2Nal)-N-C(3)-(aMe-P)-F -D-CONH2] ({DOTA}-[dA]SDC[1Nal][tBuAla][Ala(piperidin-4-yl)][2Nal]NC[αMeP]FD-NH2; disulfide 4-10)
10 | 57 pM | CC(=O)N[C@H](C)C(=O)N(C)[C@@H](CO)C(=O)N[C@@H](CC(=O)O)C(=O)N[C@H]1CSSC[C@@H](C(=O)N2CCC[C@@]2(C)C(=O)N[C@@H](Cc2ccccc2)C(=O)N[C@@H](CC(=O)O)C(=O)N[C@H](CCCCNC(=O)CN2CCN(CC(=O)O)CCN(CC(=O)O)CCN(CC(=O)O)CC2)C(N)=O)NC(=O)[C@H](CC(N)=O)NC(=O)[C@H](Cc2ccc3ccccc3c2)NC(=O)[C@H](CCC(N)=O)NC(=O)[C@H](CC(C)(C)C)NC(=O)[C@H](Cc2cccc3ccccc23)NC1=O [compound 169, Ac-(D-Ala)-(NMe-Ser)-D-C(3)-(1Nal)-(t-Bu-Ala)-Q-(2Nal)-N-C(3)-(aMe-P)-F-D-[D-Lys(DOTA)]-NH2] (Ac-[dA][NMeS]DC[1Nal][tBuAla]Q[2Nal]NC[αMeP]FD[dK](DOTA)-NH2; disulfide 4-10)
11 | 37 pM | CC(=O)N[C@H](C)C(=O)N[C@@H](CO)C(=O)N[C@@H](CC(=O)O)C(=O)N[C@H]1CSSC[C@@H](C(=O)N2CCC[C@@]2(C)C(=O)N[C@@H](Cc2ccccc2)C(=O)N[C@@H](CC(=O)O)C(=O)N[C@H](CCCCNC(=O)CN2CCN(CC(=O)O)CCN(CC(=O)O)CCN(CC(=O)O)CC2)C(N)=O)NC(=O)[C@H](CC(N)=O)NC(=O)[C@H](Cc2ccc3ccccc3c2)NC(=O)[C@H](CCC(N)=O)NC(=O)[C@H](CC(C)(C)C)NC(=O)[C@H](Cc2cccc3ccccc23)NC1=O [compound 172, Ac-(D-Ala)-S-D-C(3)-(1Nal)-(t-Bu-Ala)-Q-(2Nal)-N-C(3)-(aMe-P)-F -D-[D-Lys(DOTA)]-NH2] (Ac-[dA]SDC[1Nal][tBuAla]Q[2Nal]NC[αMeP]FD[dK](DOTA)-NH2; disulfide 4-10)
